Data taken from the OligoGym collection.
“And” between values parts separate entries of the source, which are not always exact repeats. Equal entries are not always repeated. After the bases stand the sugars from the 5' end (letter, count) and the backbone: PS all phosphorothioate, else s phosphorothioate and o phosphodiester by linkage. Methylation of C is not given here. e = 2'-O-(2-methoxyethyl) (MOE); k = constrained ethyl (cEt); d = 2'-deoxy (DNA)

Legend:
KRAS = details: ASO
IRF5 = details: ASO

| Sequence | target mRNA inhibition (KRAS; A431, 2 µM) [%] | target mRNA inhibition (IRF5; KARPAS-229, 4 µM) | also measured |
| --- | --- | --- | --- |
| AAAAAAAAAATTAATG (sugars k3 d10 k3, PS) | 6 |  |  |
| AAAAAAAATTAATGTC (sugars k3 d10 k3, PS) | 14 |  |  |
| AAACAAATGCTAATAA (sugars k3 d10 k3, PS) | 9 |  |  |
| AAACGAGAATGGATAT (sugars k3 d10 k3, PS) | 12 |  |  |
| AAAGCTATTAGGAGTC (sugars k3 d10 k3, PS) | 65 |  |  |
| AAAGTTCACATAAAGG (sugars k3 d10 k3, PS) | 38 |  |  |
| AAATCTTATGGTTAGG (sugars k3 d10 k3, PS) | 34 |  |  |
| AAATTGTGCAATGGTG (sugars k3 d10 k3, PS) | 48 |  |  |
| AAGCTATTAGGAGTCT (sugars k3 d10 k3, PS) | 65 |  |  |
| AATCCATTTATGTGAC (sugars k3 d10 k3, PS) | 26 |  |  |
| AATTAATCCATTTATG (sugars k3 d10 k3, PS) | 16 |  |  |
| AATTACTTATGCAGAG (sugars k3 d10 k3, PS) | 44 |  |  |
| ACCAGTGTTAAGAGAA (sugars kkkddddddddkdkdk, PS) | 50 |  |  |
| ACCATTCAAAGTTCAC (sugars k3 d10 k3, PS) | 34 |  |  |
| ACCATTCAAAGTTCAC (sugars kdddddddddkekeke, PS) | 15 |  |  |
| ACCATTCAAAGTTCAC (sugars kkddddddddddkeke, PS) | 41 |  |  |
| ACCATTCAAAGTTCAC (sugars kkddddddddkekekk, PS) | 7 |  |  |
| ACCATTCAAAGTTCAC (sugars kkkddddddddkekek, PS) | 26 |  |  |
| ACTTATGCAGAGAAAA (sugars k3 d10 k3, PS) | 37 |  |  |
| ACTTCATTGTTTAAAA (sugars k3 d10 k3, PS) | 0 |  |  |
| AGACTTGAAAAGTGTT (sugars k3 d10 k3, PS) | 28 |  |  |
| AGATTGTGCTGAGCTT (sugars kdddddddddkekeke, PS) | 0 |  |  |
| AGATTGTGCTGAGCTT (sugars kkddddddddddkeke, PS) | 40 |  |  |
| AGGAGTCTTTATAGTA (sugars kkdddddddddkekek, PS) | 31 |  |  |
| AGGTAAAAGCTAACAG (sugars k3 d10 k3, PS) | 41 |  | target mRNA inhibition (KRAS; A431, 0.037 µM): 46%; target mRNA inhibition (KRAS; NCI-H460, 0.037 µM): 37.3% |

| Sequence | target mRNA inhibition (KRAS; A431, 2 µM) [%] | target mRNA inhibition (IRF5; KARPAS-229, 4 µM) | also measured |
| --- | --- | --- | --- |
| AGTCCAGTGATACTTT (sugars k3 d10 k3, PS) | 8 |  |  |
| AGTGATTAGGTCAAAT (sugars kddddddddddkekek, PS) | 21 |  |  |
| AGTGATTAGGTCAAAT (sugars kdddddddddkekeke, PS) | 12 |  |  |
| AGTGTGACTCAGTTAA (sugars kkddddddddkekekk, PS) | 47 |  |  |
| ATAATAGTTTCCATTG (sugars k3 d10 k3, PS) | 8 |  |  |
| ATAATGGTGAATATCT (sugars k3 d10 k3, PS) | 41 |  |  |
| ATCCAGTATTAACACA (sugars k3 d10 k3, PS) | 0 |  |  |
| ATCTTATGGTTAGGGG (sugars k3 d10 k3, PS) | 20 |  |  |
| ATGACTAATAGCAGTG (sugars k3 d10 k3, PS) | 49 |  |  |
| ATGGTGTAACATAGGT (sugars k3 d9 k3 e1, PS) | 47 |  |  |
| ATGGTTAGGGGAATTA (sugars k3 d10 k3, PS) | 33 |  |  |
| ATGTAAATATAGCCCC (sugars k3 d10 k3, PS) | 28 |  |  |
| ATTGTGCTGAGCTTGA (sugars k3 d10 k3, PS) | 51 |  |  |
| CAAAGTTCACATAAAG (sugars k3 d10 k3, PS) | 21 |  |  |
| GTCTAGTGTCATGGAA (sugars kdddddddddkekeke, PS) |  | 35% |  |
| GTCTGGCCCTTTTGGA (sugars kkkddddddddkekek, PS) |  | 0% |  |
| GTCTTGACCTCCCGCT (sugars k3 d9 k3 e1, PS) |  | 51% |  |
| GTCTTGACCTCCCGCT (sugars kkddddddddddkeke, PS) |  | 65% and 69% | target mRNA inhibition (IRF5; KARPAS-229, 0.44444 µM): 38%; target mRNA inhibition (IRF5; KARPAS-229, 1.33333 µM): 47%; target mRNA inhibition (IRF5; KARPAS-229, 12 µM): 78% |
| GTCTTTGAGGTCTGGG (sugars kkddddddddkekekk, PS) |  | 34% |  |
| GTGAGTCTCAAACCAG (sugars kkddddddddddkeke, PS) |  | 31% |  |
| GTGTATTTCCCTGTCT (sugars k2 d9 e3 k2, PS) |  | 16% |  |
| GTGTCATGGAATTTTG (sugars k3 d10 k3, PS) |  | 58% |  |
| GTTCTTGGACTCTCAA (sugars k3 d9 k3 e1, PS) |  | 37% |  |
| GTTCTTGGACTCTCAA (sugars kddddddddddkekek, PS) |  | 35% |  |
| GTTCTTGGACTCTCAA (sugars kdddddddddkekeke, PS) |  | 0% |  |

| Sequence | target mRNA inhibition (KRAS; A431, 2 µM) [%] | target mRNA inhibition (IRF5; KARPAS-229, 4 µM) | also measured |
| --- | --- | --- | --- |
| GTTCTTGGACTCTCAA (sugars kkddddddddkekekk, PS) |  | 0% |  |
| GTTCTTGGACTCTCAA (sugars kkkddddddddkekek, PS) |  | 0% |  |
| GTTGAATTTTGTGACT (sugars k3 d9 k3 d1, PS) |  | 0% |  |
| TAATAGGAGTGAGACG (sugars k3 d10 k3, PS) |  | 12% |  |
| TATCTCCGTCCTGGCT (sugars kddddddddddkekek, PS) |  | 0% |  |
| TATTTCTGCTCCAGGT (sugars k3 d9 k3 e1, PS) |  | 45% and 67% | target mRNA inhibition (IRF5; KARPAS-229, 0.44444 µM): 46%; target mRNA inhibition (IRF5; KARPAS-229, 1.33333 µM): 52%; target mRNA inhibition (IRF5; KARPAS-229, 12 µM): 74% |
| TATTTCTGCTCCAGGT (sugars kkdddddddddkekek, PS) |  | 5% |  |
| TCACCACTGTGTACCC (sugars k3 d9 k3 e1, PS) |  | 21% |  |
| TCACCACTGTGTACCC (sugars kkddddddddddkeke, PS) |  | 0% |  |
| TCACCACTGTGTACCC (sugars kkdddddddddkdkdk, PS) |  | 0% |  |
| TCAGCTTTCTTGTCTA (sugars k3 d10 k3, PS) |  | 15% |  |
| TCCAATTTTGCATTCC (sugars k3 d9 k3 e1, PS) |  | 7% |  |
| TCCAATTTTGCATTCC (sugars kddddddddddkekek, PS) |  | 37% |  |
| TCCAATTTTGCATTCC (sugars kdddddddddkekeke, PS) |  | 6% |  |
| TCCAATTTTGCATTCC (sugars kekdddddddddeekk, PS) |  | 78% and 76% | target mRNA inhibition (IRF5; KARPAS-229, 0.44444 µM): 42%; target mRNA inhibition (IRF5; KARPAS-229, 1.33333 µM): 68%; target mRNA inhibition (IRF5; KARPAS-229, 12 µM): 82% |
| TCTGATATGATACCTA (sugars k3 d2 k1 d7 k3, PS) |  |  | target mRNA inhibition (IRF5; A-431, 0.00412 µM): 4%; target mRNA inhibition (IRF5; A-431, 0.01225 µM): 8%; target mRNA inhibition (IRF5; A-431, 0.03704 µM): 36%; target mRNA inhibition (IRF5; A-431, 0.11111 µM): 54%; target mRNA inhibition (IRF5; A-431, 0.33333 µM): 69%; target mRNA inhibition (IRF5; A-431, 1 µM): 74% |
| TCTGGCCCTTTTGGAA (sugars kdddddddddkekeke, PS) |  | 0% |  |
| TCTTGACCTCCCGCTG (sugars kkddddddddkekekk, PS) |  | 19% |  |
| TCTTGTCTAGTGTCAT (sugars k3 d10 k3, PS) |  | 0% |  |
| TGAGTCATGGAGCTGAG (sugars kdddddddddkekeked, PS) |  | 0% |  |
| TGAGTCATGGGCTGAG (sugars kkdddddddddkekek, PS) |  | 0% |  |
| TGAGTCATGGGCTGAG (sugars kkddddddddkekekk, PS) |  | 0% |  |
| TGAGTCTCAAACCAGG (sugars k2 d8 e4 k2, PS) |  | 0% |  |
| TGAGTCTCAAACCAGG (sugars kkdddddddddkdkdk, PS) |  | 0% |  |
| TGATTCCAATTTTGCA (sugars k3 d10 k3, PS) |  | 17% |  |

| Sequence | target mRNA inhibition (KRAS; A431, 2 µM) [%] | target mRNA inhibition (IRF5; KARPAS-229, 4 µM) | also measured |
| --- | --- | --- | --- |
| TGCAACATCCATCAAT (sugars k3 d10 k2 d1, PS) |  | 0% |  |
| TGCACTGACACAGGCG (sugars k2 d8 e4 k2, PS) |  | 0% |  |
| TGCACTGACACAGGCG (sugars kkddddddddkekekk, PS) |  | 0% |  |
| TGTCTAGTGTCATGGA (sugars k2 d8 e4 k2, PS) |  | 54% |  |
| TTAAGGGCACAGCGCA (sugars k3 d10 k3, PS) |  | 0% |  |
| TTATCTCCGTCCTGGC (sugars kkkddddddddkekek, PS) |  | 0% |  |
| TTATTTCTGCTCCAGG (sugars k3 d9 k3 e1, PS) |  | 28% |  |
| TTATTTCTGCTCCAGG (sugars kkddddddddddkeke, PS) |  | 26% |  |
| TTATTTCTGCTCCAGG (sugars kkddddddddkekekk, PS) |  | 0% |  |
| TTATTTCTGCTCCAGG (sugars kkkddddddddkekek, PS) |  | 23% |  |
| TTCTGCAGGGAGTCAG (sugars kddddddddddkekek, PS) |  | 4% |  |
| TTCTGCAGGGAGTCAG (sugars kdddddddddkekeke, PS) |  | 0% |  |
| TTCTTGGACTCTCAAG (sugars kkddddddddkekekk, PS) |  | 0% |  |
| TTCTTGTCTAGTGTCA (sugars k3 d10 k3, PS) |  | 49% |  |
| TTGAATTTTGTGACTG (sugars k3 d10 k3, PS) |  | 45% |  |
| TTGCCTTCTGCAGGGA (sugars k3 d10 k3, PS) |  | 0% |  |
| TTGTCTAGTGTCATGG (sugars k3 d10 k3, PS) |  | 60% and 70% | target mRNA inhibition (IRF5; KARPAS-229, 0.44444 µM): 37%; target mRNA inhibition (IRF5; KARPAS-229, 12 µM): 84% |
| TTGTCTAGTGTCATGG (sugars kekdddddddddeekk, PS) |  | 55% |  |
| TTGTCTAGTGTCATGG (sugars kkddddddddddkeke, PS) |  | 38% |  |
| TTGTCTAGTGTCATGG (sugars kkkdddddddddkeke, PS) |  | 39% |  |
| TTGTCTAGTGTCATGG (sugars kkkddddddddkdkdk, PS) |  | 36% |  |
| TTGTGACTGTATTACC (sugars k3 d10 k3, PS) |  | 56% |  |
